Values joined by “and” are separate entries in the source; they are usually repeats but may differ in a detail not shown here. Equal entries are not always repeated.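 Tested at 5 concentrations; 48 h exposure; 96-well plates; endpoints linearly interpolated, else capped at highest concentration. GI50 marks 50% less growth. TGI: concentration producing complete growth inhibition.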

Holding throughout (experiment): NCI anticancer screen, dose series, 48 h
The subject of assay [1] is 786-0 renal.
Assay [2] concerns UACC-62 melanoma.
Assay [3] deals with SNB-19 CNS.
Assay [4] deals with SN12C renal.
In assay [5] the test system is MDA-MB-231 breast.
The test system of assay [6] is UACC-257 melanoma.
For assay [7], the system named is NCI-H23 lung.
Assay [8] has as its system SK-MEL-28 melanoma.
The subject of assay [9] is HCC-2998 colon.
In assay [10] the test system is OVCAR-8 ovarian.

As for `Nc1ccccc1C#C/C=C\C#Cc1ccc(OCCCNC(=O)c2cc3ccccc3[nH]2)cc1`, the GI50 in [1] is 12.6 µM; in assay [2] it was 4.11 µM; in [3], 20.6 µM; in assay [4], 7.32 µM; in assay [5] it was 1.93 µM; in assay [6] it was 13 µM. Besides, the GI50 was 7.62 µM in [7], greater than 100 µM in assay [8], 31.5 µM in assay [9] and 42.4 µM in [10]. Moreover, the TGI in [1] was 25.7 µM; in assay [2] it was greater than 100 µM; in [3], 56.8 µM; in assay [4] it was 39.8 µM; in assay [5], 14.6 µM; in assay [6], 53.3 µM. For the same molecule, the TGI in [7] was 43.6 µM; in assay [8], greater than 100 µM; in [9] it was greater than 100 µM; in [10], greater than 100 µM.

With `COc1cc2nc(SCc3cc(OC)c(OC)c(OC)c3)n(Cc3ccccc3)c(=O)c2cc1OC`, the GI50 in [1] was 5.34 µM; in assay [2] it was 3.22 µM; in assay [3], 5.4 µM; in [4] it was 7.65 µM; in assay [5] it was 4.45 µM; in [6], 5.25 µM. Moreover, the GI50 in assay [7] was 6.58 µM; in [8], 3.88 µM; in [9], 3.71 µM; in assay [10], 6.71 µM. The TGI is 27.3 µM in assay [1]; 50.5 µM in assay [2]; 48.2 µM in assay [3]; greater than 100 µM in [4]; greater than 66 µM in assay [5]; greater than 100 µM in [6]. Further, the TGI in assay [7], in assay [8], in assay [9] and in [10] was greater than 100 µM each time.

With `O=C(NOC[C@H](O)CO)c1ccc(F)c(F)c1Nc1ccc(I)cc1F`, the GI50 in [1] was 21.6 µM and > 10 µM; in [2] it was < 0.01 µM and 0.00155 µM; in assay [3], 20.6 µM; in assay [5], 0.16 µM and 0.0347 µM; in assay [6] it was < 0.01 µM and 0.00154 µM; in assay [7], 0.0188 µM and 0.0537 µM. Also, the GI50 in assay [8] was < 0.01 µM and 0.00192 µM; in [10], 21.7 µM and > 7.5 µM. The TGI in assay [1] was greater than 100 µM; in assay [3] it was greater than 100 µM; in assay [4], greater than 100 µM; in assay [5] it was 62.7 µM and > 10 µM; in assay [6], < 0.01 µM and 0.00947 µM; in assay [7], greater than 100 µM. For the same molecule, the TGI in assay [9] was 2.24 µM; in assay [10], greater than 100 µM.

`S=c1snc2n1CCN2`: the GI50 in [1] is 91.7 µM; in assay [2], 95.5 µM; in assay [3], greater than 100 µM; in [4], 10.6 µM; in assay [5], 91.1 µM; in [6], greater than 100 µM. Further, the GI50 in [7] is greater than 100 µM; in assay [8], 64.4 µM; in assay [9], 19.3 µM; in assay [10] it was greater than 100 µM. Also, the TGI in assay [1] was greater than 100 µM; in assay [2], greater than 100 µM; in assay [3], greater than 100 µM; in assay [4], 86.8 µM; in assay [5], greater than 100 µM; in assay [6], greater than 100 µM. Besides, the TGI was greater than 100 µM in [7], greater than 100 µM in assay [8], 74.7 µM in assay [9] and greater than 100 µM in [10].

`COc1ccc(-c2cs/c(=N\N=C\c3ccc(O)cc3O)n2/N=C/c2ccc(O)cc2O)cc1`: the GI50 in [1] is 2.16 µM; in [2], 1.76 µM; in assay [3] it was 2.46 µM; in assay [4], 2.18 µM; in assay [5], 2.04 µM; in assay [6], 2.28 µM. Moreover, the GI50 in assay [7] was 1.95 µM; in [8], 1.88 µM; in [9] it was 2.07 µM; in assay [10], 2.47 µM. Further, the TGI was found to be 4.93 µM in [1]; 3.73 µM in assay [2]; 6.84 µM in assay [3]; 5.35 µM in assay [4]; 5.51 µM in assay [5]; 6.19 µM in assay [6]. The TGI in [7] was 4.64 µM; in [8], 4.15 µM; in assay [9], 4.38 µM; in [10], 6.63 µM.

As to `CCOC(=O)C(Cc1c[nH]c2c(N(CCO)CCO)cccc12)(NC(C)=O)C(=O)OCC`, the GI50 in assay [1] was greater than 1000 µM; in [2], 263 µM; in assay [3], greater than 1000 µM; in [4], 141 µM; in [5] it was 692 µM; in assay [6] it was greater than 1000 µM. In addition, the GI50 is greater than 1000 µM in [7], 736 µM in assay [8], greater than 1000 µM in [9] and greater than 1000 µM in assay [10]. The TGI in assay [1] is greater than 1000 µM; in [2] it was greater than 1000 µM; in assay [3] it was greater than 1000 µM; in assay [4], 290 µM; in assay [5], greater than 1000 µM; in assay [6], greater than 1000 µM. Further, the TGI in assay [7], in [8], in [9] and in assay [10] was greater than 1000 µM each time.

Regarding `CC[C@H](Nc1ncnc2nc[nH]c12)c1nc2cccc(F)c2c(=O)n1-c1ccccc1`, the GI50 was 4.29 µM in [1]; 3.52 µM in assay [2]; 39.3 µM in assay [3]; 7.4 µM in [4]; 29.8 µM in assay [5]; 18.9 µM in [6]. For the same molecule, the GI50 in assay [7] is 80.8 µM; in [8] it was 13.7 µM; in [9], 58.6 µM; in assay [10], 44.6 µM. The TGI in [1] is greater than 100 µM; in [2] it was greater than 92.4 µM; in [3], greater than 100 µM; in assay [4], greater than 100 µM; in [5] it was greater than 100 µM; in assay [6], greater than 100 µM. For the same molecule, the TGI in assay [7], in [8], in [9] and in [10] was greater than 100 µM each time.
